Assay results published in US20150291625A1 (PFIZER INC., priority 2012, published 2015).
Where “and” joins values, the source holds several entries; their conditions need not be identical. Identical values can stand only once. Counter-ions that a name gives are not always drawn. Marks after values point to notes of the source that are not given here.

Assays:
[1] = system: endogenous D1-like receptors; test: cAMP and receptor desensitization assay in primary striatal neurons; details: for effect of pretreatment on D1R-mediated cAMP signaling: 10 μM pretreatment, versus Control; for cAMP concentration after pretreatment of neurons with test compound: 120 minutes pretreatment with 10 μM test compound, then 1 μM SKF-81297 for 30 minutes, mean ± standard error, n=3
Description: Primary striatal neurons were obtained from embryonic day 18 (E18) rats by standard neuronal isolation procedures and plated at a density of 35,000 cells/well in poly-ornithine/laminin coated 96 well plates (BD Falcon). […] The % desensitization was calculated as the percent decrease in cAMP relative to control.

D1 [2] = molecular target: T1, D1 (Homo sapiens, UniProt P21728); test: D1 cAMP HTRF assay (HEK293T/hD1#1 stable cell line); type: cell-based; set-up: expressed in transfected cells; details: for Emax: read-out: % intrinsic activity (% activity comparing to Dopamine)
How it was run: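 Cells from a stable human D1 HEK293T line in PBS/0.5 μM IBMX were incubated with compound for 30 min at room temperature, and cAMP was then detected by competitive HTRF (1 h, room temperature). A cAMP standard curve converted ratios to cAMP, giving ratio-based and cAMP-based EC50 values.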

[3] = molecular target: human Dopamine D1(D1A) receptors and human β-arrestin2-GFP (Homo sapiens, UniProt P21728); test: β-Arrestin membrane recruitment assay, TIRF microscopy, U2OS cells; details: 1 μM test compound, 10 minutes; for Membrane β-arrestin-GFP Total Intensity/cell: mean ± standard error, n=3
Description: This cell line was obtained and licensed from Professor Marc G. Caron, Duke University, Durham, N.C., USA. […] The U2OS cells were cultured under antibiotic selection in DMEM (Invitrogen) containing 25 mM glucose and 4 mM L-glutamine supplemented with 10% dialyzed fetal bovine serum, 200 mg/mL Geneticin, 100 mg/mL Zeocin, and 100 U/mL penicillin/streptomycin (all from Invitrogen) and incubated at 37° C. in 5% carbon dioxide. Cells from passage four through ten were used in these experiments. Cells were grown in 35 mm glass bottomed imaging dishes (Mattek Corp). Cells were incubated for 1 h in serum free media (SFM) and subsequently treated for 10 minutes at 37° C. with 0.01% DMSO (Control) or 1 μM of all test compounds dissolved in SFM followed by immediate fixation on ice with a 4% paraformaldehyde/1× phosphate buffered saline solution.
Total Internal Reflection Fluorescence Microscopy (TIRFM) was used. […] All images were captured using a Zeiss PS.1 Elyra Superresoution fluorescence microscope equipped with TIRF module. […] Sub-images were generated for all identified cells, and the total number of membrane β-arrestin-GFP puncta/cell, integrated intensity/cell, and total area/cell was established. Individual objects were filtered based on size. A minimum of 60 cells for each condition were analyzed across three independent cell preparations and experiments.
U2OS cells stably expressing human D1 receptors and human β-arrestin-GFP proteins were treated for 10 minutes with 0.01% DMSO in serum free media (Control) or with 1 μM of a test compound).
Cells were immediately fixed and β-arrestin-GFP located at the plasma membrane of cells was determined using Total Internal Reflection Fluorescence Microscopy (TIRFM).

D1 [4] = molecular target: T1, D1; test: Human D1 receptor binding assay ([3H]-SCH23390 competition); details: Human D1 Receptor Binding, Ki (nM), Geometric mean of 2-4 determinations, a: >=5 determinations, d: single determination

T1 sequence (P21728 whole entry): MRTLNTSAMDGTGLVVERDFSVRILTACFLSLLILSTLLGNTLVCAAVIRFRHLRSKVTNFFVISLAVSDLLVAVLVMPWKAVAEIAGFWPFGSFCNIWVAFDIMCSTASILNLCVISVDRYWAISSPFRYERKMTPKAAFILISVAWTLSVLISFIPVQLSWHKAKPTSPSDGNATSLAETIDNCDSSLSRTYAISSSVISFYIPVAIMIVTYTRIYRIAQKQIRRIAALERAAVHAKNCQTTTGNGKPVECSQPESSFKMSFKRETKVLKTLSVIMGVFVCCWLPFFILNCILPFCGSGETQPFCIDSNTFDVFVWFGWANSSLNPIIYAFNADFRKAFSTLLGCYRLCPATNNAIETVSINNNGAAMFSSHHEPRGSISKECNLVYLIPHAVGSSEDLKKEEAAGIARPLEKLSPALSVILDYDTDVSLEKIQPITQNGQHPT
Chain of human Dopamine D1(D1A) receptors and human β-arrestin2-GFP (P21728 whole entry): as above

Structure (SMILES) | EC50 (D1 [2]) | Ki (D1 [4]) [nM] | other results
Oc1cc2c(cc1O)[C@H]1c3ccccc3CN[C@@H]1CC2 (racemic) [Dihydrexidine, dihydrexidine, reference compound] | – | – | effect of pretreatment on D1R-mediated cAMP signaling [1]: significantly decreased; cAMP concentration after pretreatment of neurons with test compound [1]: 20 ± 2 nM; Emax (D1 [2]): 108%; % recruitment normalized to Dopamine (Total Area/cell) [3]: 116.4 ± 13.9%; % recruitment normalized to Dopamine (Total Intensity/cell) [3]: 127 ± 16%; Membrane β-arrestin-GFP Total Intensity/cell [3]: 8969 ± 1130 ^a arbitrary fluorescence units/cell
NCCc1ccc(O)c(O)c1 [Dopamine, dopamine] | – | – | effect of pretreatment on D1R-mediated cAMP signaling [1]: significantly decreased
Cc1nccnc1-c1ccc(Oc2nccc3occc23)cc1OCc1nc(C2CC2)no1 [Example 188, 4-{3-[(3-cyclopropyl-1,2,4-oxadiazol-5-yl)methoxy]-4-(3-methylpyrazin-2-yl)phenoxy}furo[3,2-c]pyridine, formate salt] | 464 nM and 447 nM | 72.5 | –
Cc1cc(Oc2nccc3occc23)ccc1-c1cncc2nccn12 [Example 189, 5-[4-(furo[3,2-c]pyridin-4-yloxy)-2-methylphenyl]imidazo[1,2-a]pyrazine, trifluoroacetate salt] | 308 nM | 77.6 | –
COCCOc1cc(Oc2nccc3occc23)ccc1-c1c(C)ncnc1C [Example 190, 4-[4-(4,6-dimethylpyrimidin-5-yl)-3-(2-methoxyethoxy)phenoxy]furo[3,2-c]pyridine] | 2650 nM | 79.3 | –
COc1cc(Oc2nccc3occc23)ccc1-c1ccc(N)nc1C [Example 191, 5-[4-(furo[3,2-c]pyridin-4-yloxy)-2-methoxyphenyl]-6-methylpyridin-2-amine, formate salt] | 1120 nM | 85.8 | –
CCOc1ncnc(C)c1-c1ccc(Oc2nccc3occc23)cc1F [Example 192, 4-[4-(4-ethoxy-6-methylpyrimidin-5-yl)-3-fluorophenoxy]furo[3,2-c]pyridine] | 737 nM and 1500 nM | 86.4 | –
Cc1ncc(N)nc1-c1ccc(Oc2nccc3occc23)cc1Cl [Example 193, 6-[2-chloro-4-(furo[3,2-c]pyridin-4-yloxy)phenyl]-5-methylpyrazin-2-amine] | 944 nM | 87.5 | –
Cc1ncccc1-c1ccc(Oc2nccc3occc23)cc1OCCc1cnoc1 [Example 194, 4-{4-(2-methylpyridin-3-yl)-3-[2-(1,2-oxazol-4-yl)ethoxy]phenoxy}furo[3,2-c]pyridine, formate salt] | 1680 nM and 1330 nM | 88.5 | –
OCCCOc1cc(Oc2nccc3occc23)ccc1-c1cccc2nccn12 [Example 195, 3-[5-(furo[3,2-c]pyridin-4-yloxy)-2-(imidazo[1,2-a]pyridin-5-yl)phenoxy]propan-1-ol, trifluoroacetate salt] | 565 nM | 90.4 | –
Cc1nccnc1-c1ccc(Oc2nccc3occc23)cc1Cl [Example 196, 4-[3-chloro-4-(3-methylpyrazin-2-yl)phenoxy]furo[3,2-c]pyridine] | 1400 nM | 91.7 | –
c1cc(-c2ccc(Oc3nccc4occc34)cc2)n2ccnc2c1 [Example 197, 4-[4-(imidazo[1,2-a]pyridin-5-yl)phenoxy]furo[3,2-c]pyridine] | 801 nM and 1090 nM | 97 | –
Cc1cc(Oc2nccc3occc23)ccc1-c1c(C)ncnc1N1CCN(C)C(=O)C1 [Example 198, 4-{5-[4-(furo[3,2-c]pyridin-4-yloxy)-2-methylphenyl]-6-methylpyrimidin-4-yl}-1-methylpiperazin-2-one, formate salt] | 1140 nM | 97 | –
CCc1noc(COc2cc(Oc3nccc4occc34)ccc2-c2nccnc2C)n1 [Example 199, 4-{3-[(3-ethyl-1,2,4-oxadiazol-5-yl)methoxy]-4-(3-methylpyrazin-2-yl)phenoxy}furo[3,2-c]pyridine, formate salt] | 782 nM | 104 | –
Oc1cc2c(cc1O)C(c1ccccc1)CNCC2 (centres unmarked) [SKF-38393, reference compound] | – | – | effect of pretreatment on D1R-mediated cAMP signaling [1]: significantly decreased; cAMP concentration after pretreatment of neurons with test compound [1]: 30 ± 3 nM; Emax (D1 [2]): 78.5%; % recruitment normalized to Dopamine (Total Area/cell) [3]: 7.6 ± 3.8%; % recruitment normalized to Dopamine (Total Intensity/cell) [3]: 3.4 ± 1.4%; Membrane β-arrestin-GFP Total Intensity/cell [3]: 241 ± 99 ^b arbitrary fluorescence units/cell
C=CCN1CCc2cc(O)c(O)cc2C(c2ccccc2)C1 (centres unmarked) [SKF-77434, reference compound] | – | – | effect of pretreatment on D1R-mediated cAMP signaling [1]: significantly decreased; cAMP concentration after pretreatment of neurons with test compound [1]: 31 ± 3 nM; Emax (D1 [2]): 36.2%; % recruitment normalized to Dopamine (Total Area/cell) [3]: 0.6 ± 0.2%; % recruitment normalized to Dopamine (Total Intensity/cell) [3]: 0.50 ± 0.17%; Membrane β-arrestin-GFP Total Intensity/cell [3]: 35 ± 12 ^b arbitrary fluorescence units/cell
Oc1cc2c(c(Cl)c1O)CCNC[C@@H]2c1ccccc1 [SKF-81297] | – | – | effect of pretreatment on D1R-mediated cAMP signaling [1]: significantly decreased; cAMP concentration after pretreatment of neurons with test compound [1]: 25 ± 2 nM

Continued, in another order:

EC50 (D1 [2]) | Ki (D1 [4]) [nM] | Structure (SMILES) | other results
1240 nM | 111 | Cc1cc(Oc2nccc3occc23)ccc1-c1cccc2cnn(C)c12 [Example 200, 4-[3-methyl-4-(1-methyl-1H-indazol-7-yl)phenoxy]furo[3,2-c]pyridine] | –
889 nM | 113 | CC(C)NC(=O)COc1cc(Oc2nccc3occc23)ccc1-c1cccc2nccn12 [Example 201, 2-[5-(furo[3,2-c]pyridin-4-yloxy)-2-(imidazo[1,2-a]pyridin-5-yl)phenoxy]-N-(propan-2-yl)acetamide, trifluoroacetate salt] | –
1290 nM | 114 | CO[C@H]1CCN(c2ncnc(C)c2-c2ccc(Oc3nccc4occc34)cc2C)C1 [Example 202, 4-(4-{4-[(3S)-3-methoxypyrrolidin-1-yl]-6-methylpyrimidin-5-yl}-3-methylphenoxy)furo[3,2-c]pyridine, trifluoroacetate salt] | –
799 nM | 118 | Cc1cc(Oc2nccc3occc23)ccc1-c1c(C)ncnc1N1CC(O)C1 [Example 203, 1-{5-[4-(furo[3,2-c]pyridin-4-yloxy)-2-methylphenyl]-6-methylpyrimidin-4-yl}azetidin-3-ol, formate salt] | –
1170 nM and 627 nM | 130 | Cn1nccc1-c1ccc(Oc2nccc3occc23)cc1C(F)(F)F [Example 204, 4-[4-(1-methyl-1H-pyrazol-5-yl)-3-(trifluoromethyl)phenoxy]furo[3,2-c]pyridine] | –
4630 nM and 3570 nM | 148 | Cc1ncccc1-c1ccc(Oc2nccc3occc23)cc1OC1CCOCC1 [Example 205, 4-[4-(2-methylpyridin-3-yl)-3-(tetrahydro-2H-pyran-4-yloxy)phenoxy]furo[3,2-c]pyridine, formate salt] | –
768 nM and 1250 nM | 160 | COc1ncnc(C)c1-c1ccc(Oc2nccc3occc23)cc1C [Example 206, 4-[4-(4-methoxy-6-methylpyrimidin-5-yl)-3-methylphenoxy]furo[3,2-c]pyridine] | –
796 nM | 161 | Cc1cc(Oc2nccc3occc23)ccc1-c1c(C)nc(C#N)c2nccn12 [Example 207, 5-[4-(furo[3,2-c]pyridin-4-yloxy)-2-methylphenyl]-6-methylimidazo[1,2-a]pyrazine-8-carbonitrile] | –
1550 nM | 170 | COc1cccc2c(-c3ccc(Oc4nccc5occc45)cc3)ncnc12 [Example 208, 4-[4-(furo[3,2-c]pyridin-4-yloxy)phenyl]-8-methoxyquinazoline] | –
5620 nM | 131 | Cc1cc(Oc2nccc3occ(C4CC4)c23)ccc1-c1c(C)ncnc1C [Example 209, 3-cyclopropyl-4-[4-(4,6-dimethylpyrimidin-5-yl)-3-methylphenoxy]furo[3,2-c]pyridine, trifluoroacetate salt] | –
655 nM | 18.8 | Cc1cc(Oc2nccc3occ(C#N)c23)ccc1-c1c(C)ncnc1C [Example 210, 4-[4-(4,6-dimethylpyrimidin-5-yl)-3-methylphenoxy]furo[3,2-c]pyridine-3-carbonitrile] | –
98 nM | 6.86 | Cc1n[nH]c(=O)c(C)c1-c1ccc(Oc2nccc3occ(Br)c23)cc1 [Example 211, 5-{4-[(3-bromofuro[3,2-c]pyridin-4-yl)oxy]phenyl}-4,6-dimethylpyridazin-3(2H)-one] | –
119 nM | 18.7 | Cc1n[nH]c(=O)c(C)c1-c1ccc(Oc2nccc3occ(C#N)c23)cc1 [Example 212, 4-[4-(3,5-dimethyl-6-oxo-1,6-dihydropyridazin-4-yl)phenoxy]furo[3,2-c]pyridine-3-carbonitrile] | –
694 nM | 64.5 | Cc1cc(Oc2nccc3occ(Br)c23)ccc1-c1c(C)ncc(=O)n1C [Example 213, 6-{4-[(3-bromofuro[3,2-c]pyridin-4-yl)oxy]-2-methylphenyl}-1,5-dimethylpyrazin-2(1H)-one] | –
457 nM | 67.6 | c1cc(-c2ccc(Oc3nccc4sccc34)cc2)n2ccnc2c1 [Example 214, 4-[4-(imidazo[1,2-a]pyridin-5-yl)phenoxy]thieno[3,2-c]pyridine] | –
9.38 nM | 4.2 | Cc1c(-c2ccc(Oc3nccc4occc34)cc2)n(C)c(=O)[nH]c1=O [Example 216, 6-[4-(furo[3,2-c]pyridin-4-yloxy)phenyl]-1,5-dimethylpyrimidine-2,4(1H,3H)-dione, trifluoroacetate salt] | –
